Source: patent publication US4364958A, “1-Substituted-3-cycloalkyl-sulfonyl-pyrrolidine-2,5-dione derivatives and fungicidal compositions thereof” (Chinoin Gyogyszer es Vegyeszeti Termekek Gyara Rt., priority 1979, dated 1982)
In brackets after ≈: the same amount, converted by molar mass. Read-outs that look alike come from different tables or passages of the source.

Key:
Sclerotinia sclerotiorum = experiment: activity against phytopathogenic fungi; assay type: cell-based
[1] = system: Aspergillus niger CBS.12648; experiment: minimal inhibitory concentration in Sabouraud medium; assay type: cell-based; settings: Aspergillus niger
Source text: Aspergillus niger CBS.12648
(§1) As a medium Saboroud medium was employed.

Ascochyta pisi = experiment: activity against phytopathogenic fungi; assay type: cell-based
Taphrina deformans = experiment: activity against phytopathogenic fungi; assay type: cell-based
[2] = system: Sporotrichum schenkii CBS.34035; experiment: minimal inhibitory concentration in Sabouraud medium; assay type: cell-based; settings: 288 hours
Source text: Sporotrichum schenkii CBS.34035
as §1

Candida krusei 79/K47 = experiment: as above; settings: Pichia kudriavzevii, read-out: minimal inhibitory concentration
[3] = system: Microsporum gypseum ver. vinosum CBS.10064; experiment: as above; assay type: cell-based; settings: Nannizzia gypsea, 72 h
Source text: Microsporum gypseum ver. vinosum CBS.10064
as §1

[4] = system: Fusarium oxysporum DSM.10975; experiment: as above; assay type: cell-based
Source text: Fusarium oxysporum DSM.10975
as §1

Venturia = experiment: activity against phytopathogenic fungi; assay type: cell-based
Cercospora beticola = experiment: activity against phytopathogenic fungi; assay type: cell-based
[5] = system: Aspergillus flavus CBS.24765; experiment: minimal inhibitory concentration in Sabouraud medium; assay type: cell-based; settings: for MIC: Aspergillus flavus
Source text: Aspergillus flavus CBS.24765
as §1

[6] = system: Penicillium digitatum CBS.31948; experiment: as above; assay type: cell-based; settings: for MIC: Penicillium digitatum
Source text: Penicillium digitatum CBS.31948
as §1

Phytophtora infestans = assay type: cell-based
[7] = system: Epidermophyton floccosum OKI/IV.; experiment: minimal inhibitory concentration in Sabouraud medium; assay type: cell-based; settings: for MIC: Epidermophyton floccosum
Source text: Epidermophyton floccosum OKI/IV.
as §1

Botrytis cinerea = experiment: activity against phytopathogenic fungi; assay type: cell-based
[8] = system: Aspergillus niger CCM.F-330; experiment: minimal inhibitory concentration in Sabouraud medium; assay type: cell-based; settings: for MIC: Aspergillus niger
Source text: Aspergillus niger CCM.F-330
as §1

[9] = system: Penicillium chrysogenium CCM.F-362; experiment: as above; assay type: cell-based; settings: for MIC: Penicillium
Source text: Penicillium chrysogenium CCM.F-362
as §1

[10] = system: Penicillium chrysogenium CBS.19646; experiment: as above; assay type: cell-based; settings: for MIC: Penicillium
Source text: Penicillium chrysogenium CBS.19646
as §1

Verticillium albo-atrum = experiment: activity against phytopathogenic fungi; assay type: cell-based
[11] = system: Fusarium culmorum DSM.11425; experiment: minimal inhibitory concentration in Sabouraud medium; assay type: cell-based
Source text: Fusarium culmorum DSM.11425
as §1

[12] = system: Cryptococcus neoform. 78/K16; experiment: as above; settings: read-out: minimal inhibitory concentration
[13] = system: Candida tropicalis CBS.433; experiment: as above; assay type: cell-based; settings: for MIC: Candida tropicalis
Source text: Candida tropicalis CBS.433 "3"
as §1

[14] = system: Fusarium monoliforme DSM.11778; experiment: as above; assay type: cell-based; settings: for MIC: Fusarium
Source text: Fusarium monoliforme DSM.11778
as §1

[15] = system: Penicillium digitatum CCM.F-382; experiment: as above; assay type: cell-based; settings: for MIC: Penicillium digitatum
Source text: Penicillium digitatum CCM.F-382
as §1

Candida albicans CBS.562 = experiment: as above; assay type: cell-based; settings: for MIC: Candida albicans
Source text: Candida albicans CBS.562 "2"
as §1

[16] = system: Fusarium graminocorum DSM.11802; experiment: as above; assay type: cell-based
Source text: Fusarium graminocorum DSM.11802
as §1

[17] = system: Saccharomyces cerevisiae OKI.1282; experiment: as above; assay type: cell-based; settings: for MIC: Saccharomyces cerevisiae
Source text: Saccharomyces cerevisiae OKI.1282
as §1

[18] = system: Aspergillus fumigatus CBS.11326; experiment: as above; assay type: cell-based; settings: for MIC: Aspergillus fumigatus
Source text: Aspergillus fumigatus CBS.11326
as §1

[19] = system: Trichophyton rubrum CBS.30338; experiment: as above; assay type: cell-based; settings: Trichophyton rubrum
Source text: Trichophyton rubrum CBS.30338
as §1

Verticillium dahlise = experiment: activity against phytopathogenic fungi; assay type: cell-based
[20] = system: Trichophyton mentagrophytes CBS.50148; experiment: minimal inhibitory concentration in Sabouraud medium; assay type: cell-based; settings: for MIC: Trichophyton mentagrophytes
Source text: Trichophyton mentagrophytes CBS.50148
as §1

`O=C1CC(S(=O)(=O)C2CCCCC2)C(=O)N1c1ccccc1` (stereo not shown) [1-Phenyl-3-cyclohexyl-sulfonyl-pyrrolidine-2,5-dione] was tested, and the “activity against Sclerotinia sclerotiorum” value (Sclerotinia sclerotiorum) was “active”, the MIC ([1]; CBS.12648, 72 h, 72 hours) was 75 µg/mL (≈ 233 µM) and the MIC ([1]; CBS.12648, 144 h, 144 hours) was 150 µg/mL (≈ 467 µM). The MIC ([1]; CBS.12648, 288 h, 288 hours) was 150 µg/mL (≈ 467 µM), the “activity against Ascochyta pisi” value (Ascochyta pisi) was “active” and the “activity against Taphrina deformans” value (Taphrina deformans) was “active”. It also gave a minimal inhibitory concentration [2] of 100 µg/mL (≈ 311 µM), an MIC ([2]; Sporotrichum, CBS.34035, 288 h) of 50 µg/mL (≈ 156 µM) and an MIC (Candida krusei 79/K47; 79/K47, 24 h) of 10 µg/mL (≈ 31.1 µM). The MIC (Candida krusei 79/K47; 79/K47, 48 h) was 10 µg/mL (≈ 31.1 µM), the MIC [3] was 10 µg/mL (≈ 31.1 µM) and the MIC ([4]; 72 hours) was 50 µg/mL (≈ 156 µM). For the same compound, the MIC ([4]; 144 hours) was 75 µg/mL (≈ 233 µM), the MIC ([4]; 288 hours) was 75 µg/mL (≈ 233 µM) and the “activity against Venturia” value (Venturia) was “active”. The “activity against Cercospora beticola” value (Cercospora beticola) was “active”, the minimal inhibitory concentration ([5]; 72 hours) was 75 µg/mL (≈ 233 µM) and the minimal inhibitory concentration ([5]; 144 hours) was 150 µg/mL (≈ 467 µM). It also gave a minimal inhibitory concentration ([5]; 288 hours) of 200 µg/mL (≈ 622 µM), an MIC ([5]; CBS.24765, 72 h, 72 hours) of 100 µg/mL (≈ 311 µM) and an MIC ([5]; CBS.24765, 144 h, 144 hours) of 200 µg/mL (≈ 622 µM). The MIC ([5]; CBS.24765, 288 h, 288 hours) was 250 µg/mL (≈ 778 µM), the minimal inhibitory concentration ([6]; 288 hours) was 50 µg/mL (≈ 156 µM) and the MIC ([6]; CBS.31948, 72 h, 72 hours) was 10 µg/mL (≈ 31.1 µM). The MIC ([6]; CBS.31948, 144 h, 144 hours) was 25 µg/mL (≈ 77.8 µM), the MIC ([6]; CBS.31948, 288 h, 288 hours) was 25 µg/mL (≈ 77.8 µM) and the “activity against Phytophtora infestans” value (Phytophtora infestans) was “active”. It also gave a minimal inhibitory concentration ([7]; 144 hours) of 2.5 µg/mL (≈ 7.78 µM), a minimal inhibitory concentration ([7]; 288 hours) of 10 µg/mL (≈ 31.1 µM) and an MIC ([7]; 144 h, read-out: minimal inhibitory concentration) of 5 µg/mL (≈ 15.6 µM). For the same compound, the MIC ([7]; 288 h, read-out: minimal inhibitory concentration) was 5 µg/mL (≈ 15.6 µM), the MIC ([7]; read-out: Minimal inhibitory concentration inhibiting the growth) was 1 µg/mL (≈ 3.11 µM) and the “activity against Botrytis cinerea” value (Botrytis cinerea) was “active”. The minimal inhibitory concentration ([8]; 72 hours) was 75 µg/mL (≈ 233 µM), the minimal inhibitory concentration ([8]; 144 hours) was 150 µg/mL (≈ 467 µM) and the minimal inhibitory concentration ([8]; 288 hours) was 150 µg/mL (≈ 467 µM). The MIC ([8]; CCM.F330, 72 h, 72 hours) was 150 µg/mL (≈ 467 µM), the MIC ([8]; CCM.F330, 144 h, 144 hours) was 200 µg/mL (≈ 622 µM) and the MIC ([8]; CCM.F330, 288 h, 288 hours) was 250 µg/mL (≈ 778 µM). The minimal inhibitory concentration ([9]; 144 hours) was 150 µg/mL (≈ 467 µM), the MIC ([9]; CCM.F362, 72 h, 72 hours) was 75 µg/mL (≈ 233 µM) and the MIC ([9]; CCM.F362, 144 h, 144 hours) was 200 µg/mL (≈ 622 µM). It also gave an MIC ([9]; CCM.F362, 288 h, 288 hours) of 200 µg/mL (≈ 622 µM), a minimal inhibitory concentration ([10]; 288 hours) of 150 µg/mL (≈ 467 µM) and an MIC ([10]; CBS.19646, 72 h, 72 hours) of 50 µg/mL (≈ 156 µM). The MIC ([10]; CBS.19646, 144 h, 144 hours) was 75 µg/mL (≈ 233 µM), the MIC ([10]; CBS.19646, 288 h, 288 hours) was 75 µg/mL (≈ 233 µM) and the “activity against Verticillium albo-atrum” value (Verticillium albo-atrum) was “active”. The MIC ([11]; 72 hours) was 50 µg/mL (≈ 156 µM), the MIC ([11]; 144 hours) was 50 µg/mL (≈ 156 µM) and the MIC ([11]; 288 hours) was 100 µg/mL (≈ 311 µM). For the same compound, the MIC ([12]; 24 h) was 25 µg/mL (≈ 77.8 µM), the MIC ([12]; 48 h) was 25 µg/mL (≈ 77.8 µM) and the minimal inhibitory concentration ([13]; 24 hours) was 75 µg/mL (≈ 233 µM). For the same compound, the minimal inhibitory concentration ([13]; 48 hours) was 75 µg/mL (≈ 233 µM), the MIC ([13]; CBS.433, 24 h, 24 hours) was 150 µg/mL (≈ 467 µM) and the MIC ([13]; CBS.433, 48 h, 48 hours) was 150 µg/mL (≈ 467 µM). For the same compound, the minimal inhibitory concentration ([14]; 72 hours) was 75 µg/mL (≈ 233 µM), the minimal inhibitory concentration ([14]; 288 hours) was 200 µg/mL (≈ 622 µM) and the MIC ([14]; DSM.11778, 72 h, 72 hours) was 100 µg/mL (≈ 311 µM). It also gave an MIC ([14]; DSM.11778, 144 h, 144 hours) of 150 µg/mL (≈ 467 µM), an MIC ([14]; DSM.11778, 288 h, 288 hours) of 150 µg/mL (≈ 467 µM) and a minimal inhibitory concentration ([15]; 288 hours) of 50 µg/mL (≈ 156 µM). For the same compound, the MIC ([15]; CCM.F382, 144 h, 144 hours) was 50 µg/mL (≈ 156 µM), the MIC ([15]; CCM.F382, 288 h, 288 hours) was 75 µg/mL (≈ 233 µM) and the minimal inhibitory concentration (Candida albicans CBS.562; 24 hours) was 50 µg/mL (≈ 156 µM). For the same compound, the minimal inhibitory concentration (Candida albicans CBS.562; 48 hours) was 50 µg/mL (≈ 156 µM), the MIC (Candida albicans CBS.562; CBS.562, 24 h, 24 hours) was 75 µg/mL (≈ 233 µM) and the MIC (Candida albicans CBS.562; CBS.562, 48 h, 48 hours) was 100 µg/mL (≈ 311 µM). For the same compound, the MIC ([16]; 72 hours) was 50 µg/mL (≈ 156 µM), the MIC ([16]; 144 hours) was 100 µg/mL (≈ 311 µM) and the MIC ([16]; 288 hours) was 100 µg/mL (≈ 311 µM). For the same compound, the minimal inhibitory concentration ([17]; 24 hours) was 75 µg/mL (≈ 233 µM), the minimal inhibitory concentration ([17]; 48 hours) was 75 µg/mL (≈ 233 µM) and the MIC ([17]; OKI.1282, 24 h, 24 hours) was 50 µg/mL (≈ 156 µM). The MIC ([17]; OKI.1282, 48 h, 48 hours) was 50 µg/mL (≈ 156 µM), the minimal inhibitory concentration ([18]; 288 hours) was 200 µg/mL (≈ 622 µM) and the MIC ([18]; CBS.11326, 72 h, 72 hours) was 50 µg/mL (≈ 156 µM). For the same compound, the MIC ([18]; CBS.11326, 144 h, 144 hours) was 150 µg/mL (≈ 467 µM), the MIC ([18]; CBS.11326, 288 h, 288 hours) was 150 µg/mL (≈ 467 µM) and the MIC ([19]; CBS.30338, 72 h, 72 hours) was 2.5 µg/mL (≈ 7.78 µM). The MIC ([19]; CBS.30338, 144 h, 144 hours) was 10 µg/mL (≈ 31.1 µM), the MIC ([19]; CBS.30338, 288 h, 288 hours) was 10 µg/mL (≈ 31.1 µM) and the “activity against Verticillium dahlise” value (Verticillium dahlise) was “active”. The minimal inhibitory concentration ([20]; 72 hours) was 2.5 µg/mL (≈ 7.78 µM), the MIC ([20]; CBS.50148, 72 h, 72 hours, read-out: minimal inhibitory concentration) was 5 µg/mL (≈ 15.6 µM) and the MIC ([20]; CBS.50148, 144 h, 144 hours, read-out: minimal inhibitory concentration) was 10 µg/mL (≈ 31.1 µM). It also gave an MIC ([20]; CBS.50148, read-out: Minimal inhibitory concentration inhibiting the growth) of 2.5 µg/mL (≈ 7.78 µM).
